# According to patent publication US20210283107A1, “Methods to Expand the Spectrum of Gram-Positive Antibiotics” (NORTH CAROLINA STATE UNIVERSITY, priority 2016, published 2021):
# Assays:
# [1] = tested on: A. baumannii strain 5075 (AB5075); assay: Broth microdilution MIC determination of compound alone; format: cell-based; conditions: Acinetobacter baumannii; compound alone; AB5075; read-out: MIC
# Procedure: Our initial screening began by testing a diverse selection of 2-AI compounds from our internal library for their minimal inhibitory concentrations (MIC) against A. baumannii isolate 5075.
# Day Cultures (6 h) were subcultured to 5×10^5 CFU/mL in cation adjusted Mueller-Hinton broth (CAMHB). Aliquots (1 mL) were placed in culture tubes, and compound was added from 100 mM stock solutions, such that the compound concentration equaled the highest concentration tested (200 μM or 64 μg/mL). Samples were then aliquoted (200 μL) into the first row of wells of a 96-well plate, with all remaining wells being filled with 100 μL of initial bacterial subculture. The wells in row one were mixed five times before 100 μL was transferred to the following row (row two). Row two was then mixed five times, and 100 μL was transferred to row three. This processed was repeated until the final row had been mixed. This process provided a serial dilution of the compound. Plates were covered with Glad Press n'Seal and were incubated under stationary conditions at 37° C. for 16 hours. MIC values were recorded as the lowest concentration at which no bacterial growth was observed.
# [2] = tested on: A. baumannii strain 5075 (AB5075); assay: Macrolide sensitization / antibiotic resensitization: antibiotic MIC in presence of compound (broth microdilution); format: cell-based, Acinetobacter baumannii; conditions: AB5075; for MIC (μg/mL) of the antibiotic / MIC: antibiotic alone, no compound (control row); for MIC: Acinetobacter baumannii, read-out: MIC (μg/mL) of the antibiotic
# Procedure: A. baumannii 5075 was plated on LB agar, then grown in CAMHB for 6-8 h and this culture was used to inoculate fresh CAMHB (5×10^5 CFU/mL). The resulting suspension was aliquoted (5 mL) into culture tubes and compound, from 100 mM DMSO stock, was added. One aliquot was not treated (control). 1 mL of each sample was transferred to a new culture tube and antibiotic was added. Rows 2-12 of a 96-well microtiter plate were filled with 100 μL/well from the remaining 4 mL bacterial subcultures, allowing the concentration of compound to be kept uniform throughout the antibiotic dilution procedure. Samples containing antibiotic were aliquoted (200 μL) into the corresponding first row wells of the microtiter plate. Row 1 wells were mixed 6 to 8 times then 100 μL was withdrawn and transferred to row 2. Row 2 wells were mixed 6 to 8 times, followed by a 100 μL transfer from row 2 to row 3. This procedure was repeated to serially dilute the rest of the rows of the microtiter plate, with the exception of the final row, to which no antibiotic was added (to check for growth of bacteria in the presence of compound alone). The microtiter plate was then covered, placed in a covered damp plastic container and incubated under stationary conditions at 37° C. After 16-18 hrs minimum inhibitory concentration (MIC) values were recorded as the lowest concentration of antibiotic at which there was no visible growth of bacteria. Experiments were carried out in duplicate each time and repeated at least twice.
# The difference in antibiotic MIC between the control (no compound) sample, and the samples containing each compound was recorded as the fold-reduction.
# Day Cultures (6 h) were subcultured to 5×10^5 CFU/mL in cation adjusted Mueller-Hinton broth (CAMHB). […] One milliliter of the resulting solution was aliquoted into a separate culture tube and was dosed with antibiotic so that the resulting concentration was the highest desirable concentration to be tested. Bacteria treated with antibiotic alone were used as a control. Row one of a 96-well plate was filled with 200 μL of the antibiotic/compound solution, and the remaining rows were filled with 100 μL of the remaining 4 mL bacterial subculture. The wells in row one were mixed five times before 100 μL was transferred to the following row (row two). Row two was then mixed five times, and 100 μL was transferred to row three. This process was repeated until the second to last row had been reached. The last row is left unexposed to antibiotic in order to serve as a negative control. The antibiotic only treated bacteria was plated by aliquoting 200 μL of the treated bacteria into row one and filling the remaining rows with untreated bacteria from the original bacteria subculture. The rows were mixed in the same way as described above. Plates were covered with Glad Press n'Seal and were incubated under stationary conditions at 37° C. for 16 hours. MIC values were recorded as the lowest concentration at which no bacterial growth was observed. Fold reductions were determined by comparison of the compound treated wells with the antibiotic only treated control wells.
# [3] = compound at 30 μM vs antibiotic alone
# [4] = in presence of compound at 30 μM
# [5] = compound at 60 μM vs antibiotic alone
compound,measurement,setting,value
CCCCCCc1ccc(-c2c[nH]c(N)n2)cc1,MIC,[1],100 µM
Nc1nc(CCCNC(=O)c2cc(Br)c(Br)[nH]2)c[nH]1,MIC,[1],> 200 µM
CCCCCCC(CCCCCC)NC(=O)CCCc1c[nH]c(N)n1,MIC,[1],100 µM
CCCCCCC(=O)Nc1ccc2[nH]c(N)nc2c1,MIC,[1],> 200 µM
Nc1nc2cc(NC(=O)c3c(F)c(F)c(F)c(F)c3F)ccc2[nH]1,MIC,[1],> 200 µM
Cc1ccc(C(=O)Nc2ccc3[nH]c(N)nc3c2)cc1,MIC,[1],> 200 µM
C/C(=C\c1ccccc1)CNC(=O)Cn1cc(CCCCCc2c[nH]c(N)n2)nn1,MIC,[1],> 200 µM
CCCCCCCCCC(=O)NCCn1cc(CCCCCc2c[nH]c(N)n2)nn1,MIC,[1],> 200 µM
Nc1nc(CCCCCc2cn(-c3ccc(C(=O)NCCc4ccccc4)cc3)nn2)c[nH]1,MIC,[1],> 200 µM
CCCCCCC/C=C\CCCCCCCc1c[nH]c(N)n1,MIC,[1],> 200 µM
CC1(C)CC(=O)N(c2ccc3[nH]c(N)nc3c2)C(=O)C1,MIC,[1],> 200 µM
CCCCCCc1ccc(-c2nc(N)[nH]c2CCCCCC)cc1,MIC,[1],> 200 µM
CCCCCCCCn1cc(Cc2ccccc2)nc1N,MIC,[1],> 200 µM
CCOc1ccc(Cn2c(CCCCCc3cn(CCNC(=O)c4ccc(C)cc4)nn3)cnc2N)cc1OCC,MIC,[1],100 µM
"NCC[C@H](O)C(=O)N[C@@H]1C[C@H](N)[C@@H](O[C@H]2O[C@H](CN)[C@@H](O)[C@H](O)[C@H]2O)[C@H](O)[C@H]1O[C@H]1O[C@H](CO)[C@@H](O)[C@H](N)[C@H]1O [Amikacin, reference compound]",MIC (μg/mL) of the antibiotic,[2],128 µg/mL
Cl.Nc1nc(-c2ccc(NC(=O)/C=C/c3ccccc3)cc2)c[nH]1 [Compound 2],Fold reduction (azithromycin MIC),[2]; [3],4 fold
same,Fold reduction (clarithromycin MIC),[2]; [3],32 fold
same,Fold reduction (erythromycin MIC),[2]; [3],8 fold
same,Azithromycin MIC,[2]; [4],16 µg/mL
same,MIC,[1],100 µM
CCCCCC(=O)Nc1ccc(-c2c[nH]c(N)n2)cc1.Cl [Compound 3],Fold reduction (azithromycin MIC),[2]; [5],8 fold
same,Fold reduction (clarithromycin MIC),[2]; [5],32 fold
same,Fold reduction (erythromycin MIC),[2]; [5],16 fold
same,Azithromycin MIC,[2]; in presence of compound at 60 μM,8 µg/mL
same,MIC,[1],> 200 µM
CCCCCCCCCCCNC(=O)CCCc1c[nH]c(C)n1.Cl [Compound 5],Fold reduction (azithromycin MIC),[2]; [3],8 fold
same,Fold reduction (clarithromycin MIC),[2]; [3],256 fold
same,Fold reduction (erythromycin MIC),[2]; [3],16 fold
same,Azithromycin MIC,[2]; [4],8 µg/mL
same,MIC,[1],100 µM
CCCCCCCCCCNC(=O)Cn1cc(CCCCCc2c[nH]c(N)n2)nn1.Cl [Compound 6],Fold reduction (erythromycin MIC),[2]; [5],4 fold
same,MIC,[1],> 200 µM
CCCCCc1ccc(C(=O)NCCn2cc(CCCCCc3cnc(N)n3Cc3ccc(CCCC)cc3)nn2)cc1 [Compound 7],Fold reduction (erythromycin MIC),[2]; [5],4 fold
same,MIC,[1],200 µM
Nc1nc(-c2ccc(NC(=O)c3cc(F)c(F)c(F)c3)cc2)c[nH]1 [Compound 8],Fold reduction (clarithromycin MIC),[2]; [3],32 fold
same,Fold reduction (erythromycin MIC),[2]; [3],8 fold
same,MIC,[1],100 µM
Nc1nc(-c2ccc(NC(=O)c3ccc(Cl)c(Cl)c3)cc2)c[nH]1 [Compound 9],Fold reduction (clarithromycin MIC),[2]; [3],64 fold
same,Fold reduction (erythromycin MIC),[2]; [3],16 fold
same,MIC,[1],100 µM
CCCCCCC(=O)Nc1cccc(-c2c[nH]c(N)n2)c1.Cl [Compound 11],Fold reduction (erythromycin MIC),[2]; [5],4 fold
same,MIC,[1],> 200 µM
CCCCCCCCCCn1c(CCCCCC)cnc1N.Cl [Compound 12],Fold reduction (erythromycin MIC),[2]; [5],4 fold
same,MIC,[1],100 µM
Cl.Nc1ncc(CCCCCc2ccccc2)[nH]1 [Compound 13],Fold reduction (erythromycin MIC),[2]; [3],4 fold
same,MIC,[1],200 µM
Nc1nc(-c2ccc(NC(=O)c3cccc(F)c3)cc2)c[nH]1 [Compound 14],Fold reduction (erythromycin MIC),[2]; [5],8 fold
same,MIC,[1],> 200 µM
Nc1nc(-c2ccc(NC(=O)c3cc(F)cc(F)c3)cc2)c[nH]1 [Compound 15],Fold reduction (erythromycin MIC),[2]; [5],8 fold
same,MIC,[1],200 µM
Nc1nc(-c2ccc(NC(=O)c3ccc(Cl)cc3)cc2)c[nH]1 [Compound 16],Fold reduction (erythromycin MIC),[2]; [5],4 fold
same,MIC,[1],> 200 µM
Nc1nc(-c2ccc(NC(=O)c3c(F)c(F)c(F)c(F)c3F)cc2)c[nH]1 [Compound 17],Fold reduction (erythromycin MIC),[2]; [5],4 fold
same,MIC,[1],> 200 µM
Nc1nc(-c2ccc(NC(=O)c3ccccc3F)cc2)c[nH]1 [Compound 22],MIC,[1],> 200 µM
Nc1nc(-c2ccc(NC(=O)c3ccc(C(F)(F)F)cc3)cc2)c[nH]1 [Compound 23],MIC,[1],50 µM
Nc1nc(-c2ccc(NC(=O)c3ccc(C(F)(F)F)c(F)c3)cc2)c[nH]1 [Compound 24],MIC,[1],25 µM
"CCCCCCCCCC(=O)N[C@@H](Cc1c[nH]c2ccccc12)C(=O)N[C@H](CC(N)=O)C(=O)N[C@@H](CC(=O)O)C(=O)N[C@@H]1C(=O)NCC(=O)N[C@@H](CCCN)C(=O)N[C@@H](CC(=O)O)C(=O)N[C@H](C)C(=O)N[C@@H](CC(=O)O)C(=O)NCC(=O)N[C@H](CO)C(=O)N[C@@H]([C@H](C)CC(=O)O)C(=O)N[C@@H](CC(=O)c2ccccc2N)C(=O)O[C@@H]1C [Daptomycin, reference compound]",MIC,[2],2050 µg/mL
"CO[C@@H]1[C@@H](O[C@@H]2O[C@H](C)[C@@H](O[C@H]3C[C@@](C)(O)[C@@H](OC(=O)CC(C)C)[C@H](C)O3)[C@H](N(C)C)[C@H]2O)[C@@H](CC=O)C[C@@H](C)[C@@H](O)/C=C/C=C/C[C@@H](C)OC(=O)C[C@H]1OC(C)=O [Josamycin, josamycin, reference compound]",MIC (μg/mL) of the antibiotic,[2],128 µg/mL
"NC[C@H]1O[C@H](O[C@H]2[C@H](O)[C@@H](O[C@H]3O[C@H](CO)[C@@H](O)[C@H](N)[C@H]3O)[C@H](N)C[C@@H]2N)[C@H](O)[C@@H](O)[C@@H]1O [Kanamycin, reference compound]",MIC,[2],> 512 µg/mL
"CC(=O)NC[C@H]1CN(c2ccc(N3CCOCC3)c(F)c2)C(=O)O1 [Linezolid, linezolid, reference compound]",MIC,[2],256 µg/mL
"CO[C@H]1C[C@H](O[C@H]2[C@H](C)[C@@H](O[C@@H]3O[C@H](C)C[C@H](N(C)C)[C@H]3O)[C@@H](C)C[C@@]3(CO3)C(=O)[C@H](C)[C@@H](O)[C@@H](C)[C@@H](C)OC(=O)[C@@H]2C)O[C@@H](C)[C@@H]1O [Oleandomycin, oleandomycin, reference compound]",MIC (μg/mL) of the antibiotic,[2],256 µg/mL
"[H]/N=C(/N)N[C@H]1[C@H](O)[C@@H](O)[C@H](O[C@@H]2O[C@@H](C)[C@](O)(C=O)[C@H]2O[C@@H]2O[C@@H](CO)[C@H](O)[C@@H](O)[C@@H]2NC)[C@@H](N/C(N)=N\[H])[C@@H]1O [Streptomycin, reference compound]",MIC,[2],> 512 µg/mL
"NC[C@H]1O[C@H](O[C@H]2[C@H](O)[C@@H](O[C@H]3O[C@H](CO)[C@@H](O)[C@H](N)[C@H]3O)[C@H](N)C[C@@H]2N)[C@H](N)C[C@@H]1O [Tobramycin, reference compound]",MIC,[2],256 µg/mL
"CO[C@H]1C[C@H](O[C@H]2[C@H](C)[C@@H](O[C@@H]3O[C@H](C)C[C@H](N(C)C)[C@H]3OC(C)=O)[C@@H](C)C[C@@]3(CO3)C(=O)[C@H](C)[C@@H](OC(C)=O)[C@@H](C)[C@@H](C)OC(=O)[C@@H]2C)O[C@@H](C)[C@@H]1OC(C)=O [Troleandomycin, troleandomycin, reference compound]",MIC,[2],> 512 µg/mL
Gentamicin [reference compound],MIC (μg/mL) of the antibiotic,[2],>512 µg/mL
Neomycin [reference compound],MIC (μg/mL) of the antibiotic,[2],64 µg/mL
colistin [reference compound],MIC (μg/mL) of the antibiotic,[2],0.5 µg/mL
spiramycin [reference compound],MIC (μg/mL) of the antibiotic,[2],>512 µg/mL
